The record followed here is ChEMBL document CHEMBL1152560, “Substituted 2-arylbenzothiazoles as kinase inhibitors: hit-to-lead optimization” (Bioorg Med Chem, 2009).

The target of test [1] is T1, Activin receptor type-1B (Homo sapiens) (UniProt P36896).
T1 sequence (whole entry): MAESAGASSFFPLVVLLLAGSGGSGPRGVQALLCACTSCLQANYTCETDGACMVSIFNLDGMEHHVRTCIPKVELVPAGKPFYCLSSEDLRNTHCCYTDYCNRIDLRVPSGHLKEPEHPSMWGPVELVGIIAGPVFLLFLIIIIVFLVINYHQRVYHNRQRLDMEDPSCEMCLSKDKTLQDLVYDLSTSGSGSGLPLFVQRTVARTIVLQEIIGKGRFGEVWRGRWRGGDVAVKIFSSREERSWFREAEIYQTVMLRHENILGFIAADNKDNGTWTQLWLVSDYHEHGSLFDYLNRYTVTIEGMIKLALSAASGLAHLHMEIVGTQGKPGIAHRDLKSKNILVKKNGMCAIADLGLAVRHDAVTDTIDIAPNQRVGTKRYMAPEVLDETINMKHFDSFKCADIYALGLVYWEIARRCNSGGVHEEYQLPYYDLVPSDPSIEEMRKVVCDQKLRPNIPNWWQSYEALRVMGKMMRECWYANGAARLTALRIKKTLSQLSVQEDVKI
Put plainly: Residual activity of ACVR1B at 0.1 uM by microplate scintillation counting.

Test [2] deals with T2, Tyrosine-protein kinase Mer (Homo sapiens) (UniProt Q12866).
T2 sequence (whole entry): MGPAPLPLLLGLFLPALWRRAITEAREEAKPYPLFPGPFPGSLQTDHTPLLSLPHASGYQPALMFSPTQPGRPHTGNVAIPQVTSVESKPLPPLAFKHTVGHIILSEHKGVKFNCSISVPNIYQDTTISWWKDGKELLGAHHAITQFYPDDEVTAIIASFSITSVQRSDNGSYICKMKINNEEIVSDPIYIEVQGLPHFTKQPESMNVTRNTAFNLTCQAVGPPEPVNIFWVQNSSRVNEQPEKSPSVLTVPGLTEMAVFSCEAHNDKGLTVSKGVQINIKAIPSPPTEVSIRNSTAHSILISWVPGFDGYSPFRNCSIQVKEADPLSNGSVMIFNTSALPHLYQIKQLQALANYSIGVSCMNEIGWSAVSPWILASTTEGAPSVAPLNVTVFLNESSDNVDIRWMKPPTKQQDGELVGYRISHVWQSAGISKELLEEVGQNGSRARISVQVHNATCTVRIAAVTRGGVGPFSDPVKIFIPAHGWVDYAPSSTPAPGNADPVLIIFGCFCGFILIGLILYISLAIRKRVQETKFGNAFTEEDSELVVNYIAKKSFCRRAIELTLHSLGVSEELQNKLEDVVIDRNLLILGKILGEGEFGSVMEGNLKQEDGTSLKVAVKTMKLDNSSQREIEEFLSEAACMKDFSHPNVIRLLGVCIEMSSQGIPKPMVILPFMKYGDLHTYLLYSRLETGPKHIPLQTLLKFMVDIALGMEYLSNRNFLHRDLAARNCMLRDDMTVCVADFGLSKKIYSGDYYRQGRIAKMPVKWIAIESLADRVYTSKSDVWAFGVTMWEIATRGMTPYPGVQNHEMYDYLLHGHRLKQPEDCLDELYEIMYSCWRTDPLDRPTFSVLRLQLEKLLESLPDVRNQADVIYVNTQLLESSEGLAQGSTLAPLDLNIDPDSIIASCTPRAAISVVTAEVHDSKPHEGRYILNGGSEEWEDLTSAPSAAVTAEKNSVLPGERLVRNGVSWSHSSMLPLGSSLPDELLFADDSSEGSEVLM
Put plainly: Residual activity of MERTK at 0.1 uM by microplate scintillation counting.

Test [3] addresses T3, Calcium/calmodulin-dependent protein kinase type IV (Homo sapiens) (UniProt Q16566).
T3 sequence (whole entry): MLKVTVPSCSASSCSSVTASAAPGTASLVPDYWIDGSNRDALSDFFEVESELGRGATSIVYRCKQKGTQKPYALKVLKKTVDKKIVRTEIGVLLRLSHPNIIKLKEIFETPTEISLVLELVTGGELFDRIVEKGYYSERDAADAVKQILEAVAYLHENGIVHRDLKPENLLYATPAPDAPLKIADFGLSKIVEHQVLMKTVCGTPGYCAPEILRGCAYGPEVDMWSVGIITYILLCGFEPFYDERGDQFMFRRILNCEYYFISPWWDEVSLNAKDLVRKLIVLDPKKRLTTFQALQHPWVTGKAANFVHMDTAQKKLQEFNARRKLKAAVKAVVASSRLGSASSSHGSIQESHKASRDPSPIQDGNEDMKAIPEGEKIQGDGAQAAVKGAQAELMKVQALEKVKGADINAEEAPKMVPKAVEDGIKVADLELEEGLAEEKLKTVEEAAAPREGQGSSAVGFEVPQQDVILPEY
Put plainly: Residual activity of CAMK4 at 1 uM by microplate scintillation counting.

Test [4] concerns the target Proto-oncogene tyrosine-protein kinase ROS (Homo sapiens) (UniProt P08922). The test can be described thus: Residual activity of ROS at 0.1 uM by microplate scintillation counting.

Usually residual activity stands for the signal under treatment as a percentage of the control signal.

Sequence of Proto-oncogene tyrosine-protein kinase ROS (Homo sapiens) (P08922 whole entry): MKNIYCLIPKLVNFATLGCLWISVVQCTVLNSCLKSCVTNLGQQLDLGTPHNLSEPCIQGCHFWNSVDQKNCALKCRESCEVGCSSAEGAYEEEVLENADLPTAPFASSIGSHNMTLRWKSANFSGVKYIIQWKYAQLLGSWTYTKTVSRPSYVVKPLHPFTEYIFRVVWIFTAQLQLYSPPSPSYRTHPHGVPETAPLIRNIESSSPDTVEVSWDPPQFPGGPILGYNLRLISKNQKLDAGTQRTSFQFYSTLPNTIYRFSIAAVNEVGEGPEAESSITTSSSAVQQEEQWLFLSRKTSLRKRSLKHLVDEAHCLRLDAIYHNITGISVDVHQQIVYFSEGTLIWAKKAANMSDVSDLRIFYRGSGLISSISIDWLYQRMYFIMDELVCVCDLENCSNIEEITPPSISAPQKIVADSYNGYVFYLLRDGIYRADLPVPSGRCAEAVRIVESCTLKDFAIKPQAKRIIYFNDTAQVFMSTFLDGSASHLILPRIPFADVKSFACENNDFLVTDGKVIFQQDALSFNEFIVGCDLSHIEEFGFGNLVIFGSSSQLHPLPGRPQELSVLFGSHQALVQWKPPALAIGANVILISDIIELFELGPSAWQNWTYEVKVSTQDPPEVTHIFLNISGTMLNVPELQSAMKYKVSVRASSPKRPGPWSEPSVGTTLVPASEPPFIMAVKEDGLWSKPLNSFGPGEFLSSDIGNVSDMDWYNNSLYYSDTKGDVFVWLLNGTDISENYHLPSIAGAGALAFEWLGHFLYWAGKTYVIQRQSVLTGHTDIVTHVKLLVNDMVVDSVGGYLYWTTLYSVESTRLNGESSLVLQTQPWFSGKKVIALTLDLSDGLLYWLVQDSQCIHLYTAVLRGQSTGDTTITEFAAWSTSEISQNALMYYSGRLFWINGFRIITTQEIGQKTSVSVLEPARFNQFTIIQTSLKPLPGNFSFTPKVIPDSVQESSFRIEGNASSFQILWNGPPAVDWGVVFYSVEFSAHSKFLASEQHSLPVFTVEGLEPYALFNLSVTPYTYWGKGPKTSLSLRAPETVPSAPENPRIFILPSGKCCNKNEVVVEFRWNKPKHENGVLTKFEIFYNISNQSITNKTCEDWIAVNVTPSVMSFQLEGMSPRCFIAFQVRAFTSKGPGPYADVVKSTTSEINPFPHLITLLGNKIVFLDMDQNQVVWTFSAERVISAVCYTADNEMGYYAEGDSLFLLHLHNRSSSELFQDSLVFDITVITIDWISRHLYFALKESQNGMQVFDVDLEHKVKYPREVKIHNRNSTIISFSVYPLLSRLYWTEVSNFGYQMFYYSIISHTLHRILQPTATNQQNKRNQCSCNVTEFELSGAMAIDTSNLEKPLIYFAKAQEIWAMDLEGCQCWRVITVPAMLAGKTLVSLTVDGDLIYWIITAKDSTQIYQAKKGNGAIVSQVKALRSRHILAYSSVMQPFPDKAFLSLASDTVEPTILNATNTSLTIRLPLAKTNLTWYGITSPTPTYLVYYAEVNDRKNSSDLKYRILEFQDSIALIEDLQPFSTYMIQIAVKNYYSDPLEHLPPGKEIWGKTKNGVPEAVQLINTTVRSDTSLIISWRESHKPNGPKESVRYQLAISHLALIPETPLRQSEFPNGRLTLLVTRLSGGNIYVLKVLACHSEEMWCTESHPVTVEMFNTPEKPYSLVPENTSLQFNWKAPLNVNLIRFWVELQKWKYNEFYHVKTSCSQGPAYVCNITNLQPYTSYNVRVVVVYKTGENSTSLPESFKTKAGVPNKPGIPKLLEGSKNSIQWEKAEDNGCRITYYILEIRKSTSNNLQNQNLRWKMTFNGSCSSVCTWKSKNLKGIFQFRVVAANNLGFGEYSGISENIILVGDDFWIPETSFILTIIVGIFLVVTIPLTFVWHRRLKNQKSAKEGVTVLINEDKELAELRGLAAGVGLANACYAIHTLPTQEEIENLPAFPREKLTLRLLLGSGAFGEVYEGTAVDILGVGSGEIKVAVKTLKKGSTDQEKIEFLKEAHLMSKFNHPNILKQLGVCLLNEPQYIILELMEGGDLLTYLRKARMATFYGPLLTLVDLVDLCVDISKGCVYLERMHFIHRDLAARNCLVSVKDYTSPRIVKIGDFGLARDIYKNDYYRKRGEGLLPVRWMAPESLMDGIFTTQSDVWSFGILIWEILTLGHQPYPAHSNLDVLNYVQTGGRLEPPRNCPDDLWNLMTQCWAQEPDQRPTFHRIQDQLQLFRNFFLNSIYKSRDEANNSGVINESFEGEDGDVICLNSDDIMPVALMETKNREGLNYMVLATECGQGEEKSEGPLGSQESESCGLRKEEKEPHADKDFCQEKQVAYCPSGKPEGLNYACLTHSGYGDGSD

Regarding `COc1cc2c(Oc3ccc(-c4nc5ccccc5s4)cc3)ncnc2cc1OCCCN1CCCC1`, the residual activity in test [1] amounted to 100%; in test [2], 57%; in test [3], 97%; in test [4] it was 84%.
For the compound `COc1cc2c(Oc3ccc(-c4nc5ccccc5s4)cc3F)ncnc2cc1OCCCN1CCN(C)CC1`, the residual activity in test [1] worked out at 97%; in test [2], 68%; in test [3] it was 103%; in test [4] it was 98%.
In the case of `COc1cc2c(Oc3ccc(-c4nc5ccccc5s4)cc3)ncnc2cc1OCCCN1CCN(C)CC1`, the residual activity in test [1] amounted to 102%; in test [2], 75%; in test [3], 100%; in test [4], 91%.
